This assay deals with T1, human recombinant Yes [a.a. 2–543 (end)] (Homo sapiens, UniProt P07947).
T1 construct: human recombinant Yes [a.a; 2–543 (end)]; purchased BPS Bioscience 40488
The experiment in a line: ADP-Glo kinase assay, inhibition rates of Yes phosphorylation activity (first and second screening). As to conditions: 10 μmol L−1 compound; for First screening IR (inhibition rate): mean of n = 4 wells. Format: biochemical. Summed up:
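ADP-Glo luminescence measured inhibition of human recombinant Yes (a.a. 2–543) phosphorylation activity. In the first screen, each compound ran in 4 wells and inhibition rates were averaged. The second screen retested hits as compounds dissolved from fresh powder.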

The structures appear in SMILES notation.

T1 sequence (P07947 2-543): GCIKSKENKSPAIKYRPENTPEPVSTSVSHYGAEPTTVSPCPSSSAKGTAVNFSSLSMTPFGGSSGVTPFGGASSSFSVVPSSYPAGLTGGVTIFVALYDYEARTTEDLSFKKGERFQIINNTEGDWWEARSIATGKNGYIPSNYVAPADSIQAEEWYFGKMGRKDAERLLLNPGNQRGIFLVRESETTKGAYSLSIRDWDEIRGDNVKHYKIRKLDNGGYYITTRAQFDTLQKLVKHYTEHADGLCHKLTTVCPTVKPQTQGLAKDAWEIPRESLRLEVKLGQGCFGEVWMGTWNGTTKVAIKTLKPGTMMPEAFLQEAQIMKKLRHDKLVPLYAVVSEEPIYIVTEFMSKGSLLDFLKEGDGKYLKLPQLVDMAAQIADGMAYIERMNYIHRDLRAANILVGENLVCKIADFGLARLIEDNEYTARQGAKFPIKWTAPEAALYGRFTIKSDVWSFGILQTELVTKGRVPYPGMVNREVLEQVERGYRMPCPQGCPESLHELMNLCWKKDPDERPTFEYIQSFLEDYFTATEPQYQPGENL

Consider `O=S(=O)(c1c(Cl)cccc1Cl)N1CCN(Cc2nc(-c3cccc(Cl)c3)no2)CC1` [Compound Z90231169], for which the “First screening IR (inhibition rate)” value is -8%.

Turning to `O=S(=O)(c1ccccc1Cl)N1CCN(Cc2nc(-c3cccc(Cl)c3)no2)CC1` [Compound Z90240663], the “First screening IR (inhibition rate)” value is listed as -3%.

Turning to `COC(=O)c1cc(-c2ccc(F)cc2)nc2c1c(C)nn2C1CCS(=O)(=O)C1` (stereo not drawn) [Compound Z90289702], the “First screening IR (inhibition rate)” value was -1%.

Regarding `COC(=O)c1cc(-c2ccc(C)cc2)nc2c1cnn2C(C)C` [Compound Z90671680], the “First screening IR (inhibition rate)” value is reported as 26%.

Take `Cn1c(CNS(=O)(=O)c2ccc(C(F)(F)F)cc2)nc2ccccc21` [Compound Z90694917]: the “First screening IR (inhibition rate)” value is given as -18%.

`CCCn1c(C)cc(-c2csc(NC(=O)CCN3C(=O)COc4ccccc43)n2)c1C` [Compound Z90896104]: the “First screening IR (inhibition rate)” value was -7%.

Consider `O=C(CCCC1CCCCC1)Nc1ccc(-c2cnc[nH]2)cc1` [Compound Z91026356], for which the “First screening IR (inhibition rate)” value worked out at 0%.

Consider `CC(NC(=O)CCc1c[nH]c2ccccc12)c1cc2ccccc2o1` (stereo not drawn) [Compound Z91037735], for which the “First screening IR (inhibition rate)” value was found to be 1%.

As for `COC(=O)c1cc(-c2ccc(OC)c(OC)c2)nc2c1c(C)nn2C1CCS(=O)(=O)C1` (stereo not drawn) [Compound Z91043666], the “First screening IR (inhibition rate)” value is on record as 2%.

Regarding `COC(=O)c1cc(-c2ccccc2F)nc2c1cnn2C(C)C` [Compound Z91043804], the “First screening IR (inhibition rate)” value was -6%.

In the case of `CC(C)C(NC(=O)c1ccc(S(=O)(=O)N(C)C)cc1)c1ccc2c(c1)OCCCO2` (stereo not drawn) [Compound Z91218489], the “First screening IR (inhibition rate)” value is reported as 5%.

Take `Cc1ccccc1-n1c(SCC(=O)c2cc(C)n(CC3CCCO3)c2C)nnc1N1CCOCC1` (stereo not drawn) [Compound Z92475228]: the “First screening IR (inhibition rate)” value stood at 14%.

As for `Cc1cccc(-n2c(SCC(=O)c3cc(C)n(CC4CCCO4)c3C)nnc2N2CCOCC2)c1` (stereo not drawn) [Compound Z92479374], the “First screening IR (inhibition rate)” value was determined as 3%.

As to `O=C(CSc1nnc(-c2cccnc2)n1C1CC1)Nc1nc(-c2ccc(F)cc2)cs1` [Compound Z92534919], the “First screening IR (inhibition rate)” value is 10%.

Consider `Cc1cc(NC(=O)Cn2nc(C)c(S(=O)(=O)N3CCCCC3)c2C)no1` [Compound Z92593810], for which the “First screening IR (inhibition rate)” value was -4%.

For `O=C(OCc1cccc(C(F)(F)F)c1)c1n[nH]c(=O)c2ccccc12` [Compound Z94561070], the “First screening IR (inhibition rate)” value was -11%.

On to `O=C1COc2ccc(C(=O)/C=C/c3ccc(OC(F)F)cc3)cc2N1` [Compound Z94572736], for which the “First screening IR (inhibition rate)” value is listed as 3%.

With `Cc1nn(-c2ccccc2)c(Cl)c1CN1CCN(S(=O)(=O)c2ccccc2C(F)(F)F)CC1` [Compound Z94609806], the “First screening IR (inhibition rate)” value amounted to 3%.

As for `O=C(NCc1ccncc1)c1cnn(-c2ccc(Cl)cc2)c1C(F)(F)F` [Compound Z94739043], the “First screening IR (inhibition rate)” value stood at 6%.

For `COc1ccc(-c2cc(-c3cc4ccccc4o3)nc3c2cnn3C(C)C)cc1` [Compound Z94751514], the “First screening IR (inhibition rate)” value came to 3%.

`O=C1Nc2ccccc2/C1=C\c1cnn(-c2ccccc2)c1` [Compound Z95045593]: the “First screening IR (inhibition rate)” value was determined as 32%.

Consider `O=C1Nc2cc(Cl)ccc2/C1=C\c1cnn(-c2ccccc2)c1` [Compound Z95046696], for which the “First screening IR (inhibition rate)” value was 4%.

For the molecule `O=C(O)/C(=C\c1cccc(C(F)(F)F)c1)Sc1nnc(-c2ccco2)o1` [Compound Z95207137], the “First screening IR (inhibition rate)” value is -11%.

As for `CCCn1c(/C(Cl)=C/c2ccc(F)c(F)c2)nc2cc(S(=O)(=O)N3CCOCC3)ccc21` [Compound Z95254533], the “First screening IR (inhibition rate)” value was determined as 14%.

As for `CC(C)C(NC(=O)c1ccc(CNC(N)=O)cc1)c1ccccc1` (stereo not drawn) [Compound Z96018682], the “First screening IR (inhibition rate)” value is -1%.

Regarding `O=C(Nc1ccccc1)C1CCN(C(=O)C2CCOCC2)CC1` [Compound Z96031302], the “First screening IR (inhibition rate)” value was 1%.

Turning to `CCN(CCCNC(=O)c1cn(-c2ccccc2)nc1-c1cccnc1)c1ccccc1` [Compound Z96041573], the “First screening IR (inhibition rate)” value is listed as -8%.

As for `COc1ccc(OC)c(C2CCCN2C(=O)CSc2nnc(Nc3ccccc3C)s2)c1` (stereo not drawn) [Compound Z96342510], the “First screening IR (inhibition rate)” value is 9%.

For `CCCc1cc(=O)oc2cc(OCC(=O)N(C)CC3COc4ccccc4O3)ccc12` (stereo not drawn) [Compound Z97092537], the “First screening IR (inhibition rate)” value is recorded as 30%.

For `COc1ccc(-n2c(=O)c3ccccc3n3c(SCC(=O)NC(C)CCCC(C)C)nnc23)cc1` (stereo not drawn) [Compound Z97290306], the “First screening IR (inhibition rate)” value is on record as -3%.

On to `CCN(Cc1ccc2c(c1)OCCO2)C(=O)CSc1nnc(C(C)N(C)C)n1-c1ccc(F)cc1` (stereo not drawn) [Compound Z97565837], for which the “First screening IR (inhibition rate)” value is 15%.

As to `O=C(CSc1nnc(-c2cccnc2)n1C1CC1)c1ccc2c(c1)OCCCO2` [Compound Z98268667], the “First screening IR (inhibition rate)” value is 5%.

Turning to `COc1ccc(C(=O)N[C@@H]2C(=O)Nc3c(c(C)nn3C)[C@H]2c2cccc(C(F)(F)F)c2)cc1OC` [Compound Z98361471], the “First screening IR (inhibition rate)” value is on record as 17%.

Regarding `Cc1ccc(-n2c(SCC(=O)c3cc(C)n(CC4CCCO4)c3C)nnc2N2CCOCC2)cc1` (stereo not drawn) [Compound Z98369603], the “First screening IR (inhibition rate)” value came out at 22%.

Consider `Cc1ccc(-n2c(SCC(=O)c3ccc(NC(=O)C(C)(C)C)cc3)nnc2N2CCOCC2)cc1` [Compound Z98370329], for which the “First screening IR (inhibition rate)” value amounted to 11%.

Consider `O=C(O)c1cc(-c2cccnc2)nc2c1cnn2Cc1cccnc1` [Compound Z98638708], for which the “First screening IR (inhibition rate)” value stood at 13%.

In the case of `Cc1nnc(SCC(=O)c2cc3cc(Cl)ccc3o2)n1C1CC1` [Compound Z98941608], the “First screening IR (inhibition rate)” value is on record as 10%.

On to `COc1ccccc1NC(=O)c1ccc(NC(=O)COc2ccc(-c3nc(C)cs3)cc2)cc1` [Compound Z99004386], for which the “First screening IR (inhibition rate)” value came to 5%.

`O=C(Cc1csc(-c2ccsc2)n1)Nc1ccc2nc(N3CCOCC3)sc2c1` [Compound Z99468124]: the “First screening IR (inhibition rate)” value is given as 8%.

In the case of `Nc1nc(N)nc(CSCc2ccc(-c3ccccc3)cc2)n1` [Compound Z99552008], the “First screening IR (inhibition rate)” value is listed as -6%.

Turning to `CSc1ccc(CSCc2nc(N)nc(Nc3ccccc3)n2)cc1` [Compound Z99558919], the “First screening IR (inhibition rate)” value is recorded as -15%.

For the molecule `O=C(Nc1ccc(S(=O)(=O)Nc2nccs2)cc1)c1cnn(Cc2ccccc2)c1` [Compound Z100622740], the “First screening IR (inhibition rate)” value is listed as 61%.

On to `CNS(=O)(=O)c1ccc(NC(=O)c2cn(-c3ccccc3)nc2-c2cccnc2)cc1` [Compound Z101840388], for which the “First screening IR (inhibition rate)” value is on record as 11%.

Consider `O=C(NCCNc1ncc(C(F)(F)F)cc1Cl)c1ccc2nc[nH]c2c1` [Compound Z101998542], for which the “First screening IR (inhibition rate)” value was found to be 25%.

In the case of `CC(=O)c1c(C)[nH]c(C(=O)NCCCn2cnc3ccccc32)c1C` [Compound Z102448822], the “First screening IR (inhibition rate)” value is listed as 20%.

Consider `CSCCC(NC(=O)c1ccco1)C(=O)NCc1ccc(CN(C)C)cc1` (stereo not drawn) [Compound Z102556578], for which the “First screening IR (inhibition rate)” value is recorded as -3%.

As to `c1ccc(-n2ncc3c(SCCc4ccncc4)ncnc32)cc1` [Compound Z103069550], the “First screening IR (inhibition rate)” value is on record as 11%.

Regarding `CCCCn1c(CN2CCN(C(=O)c3ccco3)CC2)nc2c1c(=O)[nH]c(=O)n2Cc1ccccc1` [Compound Z104777504], the “First screening IR (inhibition rate)” value is -22%.

In the case of `CCCCn1c(CN2CCN(c3ncccn3)CC2)nc2c1c(=O)[nH]c(=O)n2Cc1ccccc1` [Compound Z104925552], the “First screening IR (inhibition rate)” value was 9%.

Take `CCCCn1c(CN2CCN(c3ccccn3)CC2)nc2c1c(=O)[nH]c(=O)n2Cc1ccccc1` [Compound Z104935524]: the “First screening IR (inhibition rate)” value was found to be 2%.

`O=S(=O)(c1ccccc1C(F)(F)F)N1CCN(Cc2ncc(-c3ccc(Cl)cc3)o2)CC1` [Compound Z105146244]: the “First screening IR (inhibition rate)” value is given as -3%.

For `O=C(CN1CCSc2ccccc21)N1CCN(S(=O)(=O)c2ccc(Cl)s2)CC1` [Compound Z105335628], the “First screening IR (inhibition rate)” value is recorded as -5%.

On to `Cc1ccccc1CN1CCN(CC(=O)c2cc(C)n(CC3CCCO3)c2C)CC1` (stereo not drawn) [Compound Z105957250], for which the “First screening IR (inhibition rate)” value is reported as 15%.

Turning to `CCCCn1c(CN2CCN(C(=O)C3CCCO3)CC2)nc2c1c(=O)[nH]c(=O)n2Cc1ccccc1` (stereo not drawn) [Compound Z105965792], the “First screening IR (inhibition rate)” value is 1%.

Consider `Cc1cccc(C)c1NC(=O)CN1CCN(C(C(=O)N2CCCCC2)c2ccccc2)CC1` (stereo not drawn) [Compound Z106611352], for which the “First screening IR (inhibition rate)” value is on record as -11%.

With `CN(C)C(=O)CN1CCN(CC(=O)Nc2cc(-c3ccc4c(c3)CCC4)nn2-c2ccccc2)CC1` [Compound Z106627256], the “First screening IR (inhibition rate)” value is -3%.

For `Cc1cc(Br)ccc1NC(=O)Cn1nc(C)c(S(=O)(=O)N2CCC(C)CC2)c1C` [Compound Z107308838], the “First screening IR (inhibition rate)” value is -17%.

As for `Oc1c(-c2nc3ccccc3c3ccccc23)sc2ncccc12` [Compound Z107727738], the “First screening IR (inhibition rate)” value amounted to 43%. Moreover, for the setting “second screening, dissolved from fresh powder, n = 4”, the “Second screening IR (inhibition rate)” value came to 24%.

As to `COc1ccc(C(=O)Nc2n[nH]c(-c3ccc(F)cc3)n2)cc1` [Compound Z108548640], the “First screening IR (inhibition rate)” value was 6%.

Take `CC(C)(Oc1ccc(Cl)cc1)C(=O)Nc1n[nH]c(-c2ccc(F)cc2)n1` [Compound Z108548764]: the “First screening IR (inhibition rate)” value worked out at 16%.

Take `O=C(CCCSc1ccccc1)Nc1n[nH]c(-c2ccc(F)cc2)n1` [Compound Z108549090]: the “First screening IR (inhibition rate)” value was 6%.

`O=C(Nc1n[nH]c(-c2ccc(F)cc2)n1)c1ccccc1F` [Compound Z108549754]: the “First screening IR (inhibition rate)” value was -11%.

Source of the values: publication PMC5607274, “An iterative compound screening contest method for identifying target protein inhibitors using the tyrosine-protein kinase Yes” (Scientific Reports, 2017).
